Reference: paper PMC7663597, “Structure–Activity Relationship of Aloperine Derivatives as New Anti–Liver Fibrogenic Agents” (Molecules, 2020)

Experiments:
COL1A1 promotor = COL1A1 promotor luciferase reporter gene assay in TGF-β1-treated LX-2 cells; type: cell-based, human; details: Homo sapiens; for inhibition at 40 µM / inhibition at 80 µM: LX-2, 24 h; for inhibition at 40 µM: 24 h with TGF-β1, read-out: Inhibition Percentage 40 μM (inhibition rate of COL1A1 promotor's activity); for inhibition at 80 µM: 24 h with TGF-β1, read-out: Inhibition Percentage 80 μM (inhibition rate of COL1A1 promotor's activity); for IC50: read-out: IC50 (concentration required to inhibit 50% of COL1A1 promotor's activity)
Method: A single luciferase reporter gene detection model was applied to evaluate the inhibitory effects of all target compounds on the expression of COL1A1 promotor in human hepatic stellate LX-2 cells at the concentrations of 40 and 80 μM, taking EGCG as the positive control. The LX-2 cell lines were transfected with COL1A1 promotor luciferase plasmid pGL4.17-COL1A1P for 24 h, then simultaneously treated with TGF-β1 and a tested compound for 24 h.
Cells were maintained on Dulbecco’s Modified Eagle’s medium (DMEM), laid on 96-well plate. DMEM medium was supplemented with 10% fetal bovine serum (FBS) at 37 °C humidified atmosphere with 5% CO2. Furthermore, serum-free culture was required until the cells were confluent at 90−95%. 24 h later the cells were treated with a tested compound (40 and 80 μM) for 24 h. The COL1A1 promotor activity was detected by the Bright-Glo luciferase assay system. Alternatively, to test the acute effects of compound on luciferase activity, 24 h later the cells were lysed and the lysate was treated with a tested compound (80 μM) for 2 h, then the luciferase was detected by the Bright-Glo luciferase assay system (Promega, Madison, WI, USA).

[1] = LX-2 cell survival, sulforhodamine B (SRB) assay; type: cell-based; details: human, LX-2 cells
Method: LX-2 cell survival was measured by sulforhodamine B (SRB) assay. The cells were seeded in 96-well plates at the density of 2 × 10^4/well and cultured in DMEM/GlutaMAX I medium with 10% fetal bovine serum (FBS) with 5% CO2, 37 °C. The cells were treated by the aloperine derivates for 24 h, washed by PBS for three times. Then the cells were fixed with 10% (wt/vol) trichloroacetic acid for 1 h and stained with SRB for 0.5 h. Subsequently, the protein-bound dye was dissolved in 10 mM Tris base solution after removing excess SRB dye washing repeatedly with 1% (vol/vol) acetic acid, the optical density (OD) was determined at 510 nm with a microplate reader.

[2] = HepG2 cell survival, MTT assay; type: cell-based; details: human, HepG2 cells
Method: HepG2 cell survival was measured by MTT assay. HepG2 cells, at density of 6x10^3 cells/well in 96-well culture plates, were incubated with the aloperine derivates at various concentrations until the cells at 50% confluence for 24 h. 20 µL of the MTT (5 mg/mL) solution was added to each plate and incubated with 5% CO2, 37 °C for 4 h. Subsequently, withdrawing the culture supernatant containing MTT, 150 µL DMSO was used for dissolving the formazan crystal. The absorbance was measured using a microplate reader at 570 nm.

COL1A1 mRNA = experiment: RT-PCR of COL1A1 mRNA in LX-2 cells; type: cell-based, human; details: 24 h
Method: (§1) In the absence or presence of TGF-β1 (2 ng/mL) treatment, LX-2 cells were treated with key compounds 4n and 4p at concentrations of 6 μM and 12 μM, or 4i at a concentration of 12 μM, respectively.
LX-2 cells were laid on 6-well plate and cultured in DMEM supplemented with 10% fetal bovine serum (FBS) in a 5% CO2 atmosphere at 37 °C. And serum-free culture was required until the cells reached 90−95% confluence. […] Total RNA of the LX-2 cells was isolated using TRIzol reagent, purified using NucleoSpin RNA Clean-up. Reverse transcription was performed with Transcriptor first strand cDNA synthesis kit. Subsequently, the cDNA levels was determined by ABI 7500 Fast Real-Time PCR System using TaqMan probes of COL1A1, TGF-β1, α-SMA, and GAPDH (sequence not disclosed by ABI) and FastStart Universal Probe master mix (Roche, Indianapolis, IN, USA).

TGFB1 mRNA = experiment: RT-PCR of TGFB1 mRNA in LX-2 cells; type: cell-based, human; details: TGF-β1 (2 ng/mL) stimulation, 24 h
Method: as §1
Since the stimulation of TGF-β1 provokes the expression of a series of fibrosis genes, for example COL1A1 and TGFB1 [24, 25], the effects of key compounds on TGF-β1 expression were evaluated by RT-PCR and western blot assays. As shown in Figure 2B and Supplementary Table S1, the expression of TGFB1 mRNA was maintained at a low level, and the addition of a key compound seemed to have little effect on its expression.
LX-2 cells were laid on 6-well plate and cultured in DMEM supplemented with 10% fetal bovine serum (FBS) in a 5% CO2 atmosphere at 37 °C. And serum-free culture was required until the cells reached 90−95% confluence. After 24 h, cells were incubated with […] concentrations of aloperine derivatives in the presence of 2 ng/mL of TGF-β1 for 24 h. Total RNA of the LX-2 cells was isolated using TRIzol reagent, purified using NucleoSpin RNA Clean-up. Reverse transcription was performed with Transcriptor first strand cDNA synthesis kit. Subsequently, the cDNA levels was determined by ABI 7500 Fast Real-Time PCR System using TaqMan probes of COL1A1, TGF-β1, α-SMA, and GAPDH (sequence not disclosed by ABI) and FastStart Universal Probe master mix (Roche, Indianapolis, IN, USA).

COL1A1 protein = experiment: Western blot of COL1A1 protein in LX-2 cells; type: cell-based; details: Homo sapiens, 24 h, read-out: Inhibition rate of COL1A1 protein; for inhibition at 6 µM: with TGF-β1, 6 μM; for inhibition at 12 µM: with TGF-β1, 12 μM
Method: Then the anti-COL1A1 effects of 4n and 4p on protein level were evaluated by western blot assay.
(§2) LX-2 cells were cultured as described above. Cells were washed with phosphate-buffered saline (PBS) and were resuspended by radioimmunoprecipitation assay (RIPA) lysis buffer for 30 min in 4 °C; the supernatant was collected after centrifugation at 12000 g for 15 min at 4 °C. Subsequently, equal amounts of protein were quantified with Bradford assay, separated using SDS-PAGE and transferred onto polyvinylidene difluoride membrane. The membranes were blocked with 5% milk in PBST for 1 h, and probed with specific primary antibodies overnight at room temperature. The membrane was washed three times by PBST, and probed with horseradish peroxidase-conjugated secondary antibodies and GAPDH. The proteins were visualized by chemiluminescence reagents. Antibodies used in western blot analysis were obtained from Abcam (Cambridge, UK): anti-collagen 1 (ab34710), anti-TGF beta 1 antibody (ab179695), anti-alpha smooth muscle actin (ab32575) and Cell Signaling Technology (Danvers, MA, USA): GAPDH (D16H11) Rabbit mAb (5174).

TGF-β1 protein = experiment: Western blot of TGF-β1 protein in LX-2 cells; type: cell-based, human; details: 24 h
Method: At the meantime, the addition of TGF-β1 also stimulated the expression of TGF-β1 on protein level, as shown in Figure 3A–C and Supplementary Table S2.
as §2

[3] = TGF-β1 (2 ng/mL) stimulation, 6 μM
[4] = TGF-β1 (2 ng/mL) stimulation, 12 μM

Row | Compound | inhibition at 40 µM (COL1A1 promotor) [%] | inhibition at 80 µM (COL1A1 promotor) [%] | IC50 (COL1A1 promotor) [µM] | CC50 at 24 h [1] [µM] | CC50 at 24 h [2] [µM] | Inhibitory rate of COL1A1 transcription (mRNA) (COL1A1 mRNA; [3]) [%] | Inhibitory rate of COL1A1 transcription (mRNA) (COL1A1 mRNA; [4]) [%] | Inhibitory rate of COL1A1 transcription (mRNA) (COL1A1 mRNA; absence of TGF-β1, 6 μM) [%] | Inhibitory rate of COL1A1 transcription (mRNA) (COL1A1 mRNA; absence of TGF-β1, 12 μM) [%] | Inhibitory rate of TGFB1 mRNA expression (TGFB1 mRNA; 6 μM) [%] | Inhibitory rate of TGFB1 mRNA expression (TGFB1 mRNA; 12 μM) [%] | inhibition at 6 µM (COL1A1 protein) [%] | inhibition at 12 µM (COL1A1 protein) [%] | Inhibition rate of TGF-β1 protein expression (TGF-β1 protein; with TGF-β1, 6 μM) [%] | Inhibition rate of TGF-β1 protein expression (TGF-β1 protein; with TGF-β1, 12 μM) [%]
1 | O=C(CN1CCCC2=C[C@H]3C[C@H](CN4CCCC[C@H]34)[C@@H]21)N(c1ccccc1)c1ccc2ccccc2c1 [4n, 12N-(N’-(Naphthalen-2-yl)-N’-phenyl)carbamoylmethyl aloperine] | 99.9 ± 0.1 | 100 | 13.3 ± 0.5 | 17.1 ± 5.4 | 35.2 ± 4.1 | 76.0 | 84.5 | 42 | 47 | 57.7 | 60.0 | 31.8 | 76.5 | 14.6 | 61.0
2 | O=C(CN1CCCC2=C[C@H]3C[C@H](CN4CCCC[C@H]34)[C@@H]21)N1c2ccccc2Oc2ccccc21 [4p, 12N-N′-Phenoxazinylcarbamoylmethyl aloperine] | 72.2 ± 1.5 | 99.1 ± 1 | 16.5 ± 0.4 | 34.8 ± 2.9 | 43.7 ± 2.7 | 99.5 | 102.9 | 38 | 42 | 60.8 | 63.8 | 22.7 | 79.2 | 20.8 | 135.4
